Source: the NIST ThermoML archive (doi:10.1016/j.fluid.2005.10.023)

Test: xn = mol fraction of the nth substance listed
Details: Gas, Other PVT measurement

CCCCCC [hexane] + O=C=O
mass density [kg/m3]
Details | x1 = 0.0373 | x1 = 0.0471 | x1 = 0.052 | x1 = 0.0618
323.15 K | 355 | 451 | 477 | –
328.15 K | 294 | 396 | 423 | 436
333.15 K | 249 | 343 | 378 | 392

CCCCCl [1-chlorobutane] + O=C=O
mass density [kg/m3]
Details | x1 = 0.0257 | x1 = 0.03 | x1 = 0.0363 | x1 = 0.04 | x1 = 0.0497
323.15 K | 347 | 386 | 442 | 468 | –
328.15 K | 300 | 343 | 390 | 407 | 467
333.15 K | – | 286 | 345 | 380 | 419

C=Cc1ccccc1 [styrene] + O=C=O
mass density [kg/m3]
Details | x1 = 0.0182 | x1 = 0.0256 | x1 = 0.03 | x1 = 0.0343 | x1 = 0.0393 | x1 = 0.0476
323.15 K | 479 | 494 | 521 | – | – | –
328.15 K | 450 | 471 | 499 | 529 | 547 | 580
333.15 K | 430 | 453 | 479 | 507 | 527 | 560

Clc1ccccc1 [chlorobenzene] + O=C=O
mass density [kg/m3]
Details | x1 = 0.024 | x1 = 0.0293 | x1 = 0.0352 | x1 = 0.04 | x1 = 0.0482 | x1 = 0.204
323.15 K | 471 | 507 | – | – | – | 437
328.15 K | 441 | 481 | 516 | 534 | – | 406
333.15 K | 417 | 458 | 493 | 516 | 556 | 386
